Several values for one entry are separate records, joined by “and”; a condition that tells them apart may be missing. Equal values may be shown once. Read-outs that look alike come from different tables or passages of the source.
Assays:
[1] = molecular target: human cannabinoid CB1 receptor (Homo sapiens, UniProt P21554); test: cell-based; type: cell-based; conditions: for CB2/CB1: ratio of the IC50 values CB2/CB1, plate-based assay
[2] = molecular target: human cannabinoid CB2 receptor (Homo sapiens, UniProt P34972); test: cell-based; conditions: for inhibition of internalization (CB2): 2 nM [3H]-CP55,940, CHO-CB2
[3] = system: CB2 receptor; conditions: ref Tam et al [25]; cited from earlier work

Chain of human cannabinoid CB1 receptor (P21554 whole entry): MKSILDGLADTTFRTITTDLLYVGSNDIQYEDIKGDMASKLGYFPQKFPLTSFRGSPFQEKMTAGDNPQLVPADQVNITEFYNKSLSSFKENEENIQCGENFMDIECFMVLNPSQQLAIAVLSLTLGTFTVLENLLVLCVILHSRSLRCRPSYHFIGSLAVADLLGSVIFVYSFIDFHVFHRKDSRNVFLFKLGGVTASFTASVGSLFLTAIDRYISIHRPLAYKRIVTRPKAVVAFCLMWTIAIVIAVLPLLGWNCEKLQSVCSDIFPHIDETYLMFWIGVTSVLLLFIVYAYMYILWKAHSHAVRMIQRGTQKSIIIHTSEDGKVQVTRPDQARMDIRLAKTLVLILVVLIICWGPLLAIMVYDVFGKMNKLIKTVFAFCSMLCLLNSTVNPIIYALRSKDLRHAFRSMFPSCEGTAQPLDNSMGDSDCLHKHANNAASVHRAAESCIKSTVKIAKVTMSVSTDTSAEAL
Chain of human cannabinoid CB2 receptor (P34972 whole entry): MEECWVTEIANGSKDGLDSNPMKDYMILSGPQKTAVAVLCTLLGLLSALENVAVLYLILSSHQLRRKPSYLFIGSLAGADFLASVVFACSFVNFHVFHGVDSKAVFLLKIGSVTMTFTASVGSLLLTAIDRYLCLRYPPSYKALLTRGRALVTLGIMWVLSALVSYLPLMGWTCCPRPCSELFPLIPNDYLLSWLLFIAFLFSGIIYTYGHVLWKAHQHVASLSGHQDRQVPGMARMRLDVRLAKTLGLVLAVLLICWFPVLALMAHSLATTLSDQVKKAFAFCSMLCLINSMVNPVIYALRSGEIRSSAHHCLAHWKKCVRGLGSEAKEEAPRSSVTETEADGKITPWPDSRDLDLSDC

| SMILES | inhibition of internalization (CB1) [1] | CB2/CB1 [1] | inhibition of internalization (CB2) [2] | IC50 ([1]; read-out: CB1 (IC50 ±SD)) | other results |
| --- | --- | --- | --- | --- | --- |
| CCCCCn1cc(C(=O)C23CC4CC(CC(C4)C2)C3)c2ccccc21 [AB001, 3-[(adamantan-1-yl)carbonyl]-1-pentylindole] | 32.6% | 58 | 30.3% | – | IC50 [1]: 29.5 ± 2.23 nM |
| C[C@@]12CC[C@@H]3[C@@](CC[C@H]4[C@@]3(C)CCC[C@@]4(C)C(=O)O)(CC1=O)C2 [Isosteviol] | – | 0.02 | 56.8% | – | IC50 [1]: 37.5 ± 6.9 nM; inhibition of internalization (CB1) ([1]; 10 nM [3H]-Win 55,212-2, CHO-CB1): 71.1%; IC50 [2]: 0.9 nM and 0.89 nM; selectivity for CB2 (over CB1) ([2]; plate-based assay): ~ 40 times |
| Cc1c(C(=O)NN2CCCCC2)nn(-c2ccc(Cl)cc2Cl)c1-c1ccc(Cl)cc1 [Rimonabant] | – | – | 37.7% | – | – |
| CC(C)[C@H](N=C(NS(=O)(=O)c1ccc(Cl)cc1)N1C[C@H](c2ccccc2)C(c2ccc(Cl)cc2)=N1)C(N)=O [JD5037-030] | 64.4% | 810 | 52.1% | 0.2 ± 0.05 nM | binding affinity for CB2 [3]: 245 nM |
| Cc1c(C(=O)NN2CCS(=O)(=O)CC2)nn(-c2ccc(Cl)cc2Cl)c1-c1ccc(C#CCCC#N)cc1 [AM6545] | 43.7% | 309 | 50.7% | 4.2 ± 0.24 nM | – |
| Cc1c(C(=O)NN2CCOCC2)nn(-c2ccc(Cl)cc2Cl)c1-c1ccc(I)cc1 [AM281] | – | – | 44.2% | 9.91 ± 0.99 nM | – |
| COc1ccc(C(=O)c2c(C)n(CCN3CCOCC3)c3cc(I)ccc23)cc1 [AM630] | – | – | 51.4% | – | – |
| CCCCCn1cc(C(=O)C2C(C)(C)C2(C)C)c2ccccc21 [UR144] | 29.6% | 3 | 38.1% | 27.2 ± 6.6 nM | selectivity for CB1 (over CB2) ([1]; plate-based assay): did not observe any selectivity |
| Cc1c(C(=O)NN2CCCCC2)nn(-c2ccc(Cl)cc2Cl)c1-c1ccc(I)cc1 [AM251] | – | – | 60.5% | – | – |
